Measurements taken from article PMC4741798, “Imaging of carbonic anhydrase IX with an ^111In-labeled dual-motif inhibitor” (Oncotarget, 2015).
Entries after “also recorded” stand apart in the source; their conditions may differ.

Tests used:
[1] = test system: CAIX-negative BxPC3 cells; assay: FACS analysis of cell binding; format: cell-based; conditions: 30 min room temperature
Experimental: (§1) CAIX-positive SK-RC-52 and CAIX-negative BxPC3 cells were maintained in RPMI 1640 media supplemented with 10% FBS and 1 × penicillin-streptomycin in a 37°C humidified incubator. Cells were detached from the flask with trypsin and reconstituted in RPMI 1640 media supplemented with 1% FBS at a density of 1 × 10^6 cells per mL. FITC-labeled 8 was added to the cells at the indicated concentration and incubated at room temperature for 30 min. Cells were washed twice with the same media for staining and analyzed using the FACSCalibur (BD Bioscience, San Jose, CA) instrument.

[2] = test system: CAIX-expressing SK-RC-52 cells; assay: FACS analysis of cell binding; format: cell-based
Experimental: as §1

[3] = test system: CAIX-expressing SK-RC-52 cells; assay: Fluorescence microscopic analyses of labeled cells; format: cell-based; conditions: 100 nM of 8 for 1 h; BxPC3 as negative cells
Experimental: CAIX-positive SK-RC-52 and CAIX-negative BxPC3 cells were seeded on to 8-well chamber glass slides (Lab-Tek®IICC^2™, Nunc, Rochester NY) and incubated in RPMI 1640 media supplemented with 10% FBS and 1 × penicillin-streptomycin in a 37°C humidified incubator for 48 h. Cells were stained with 100 nM of FITC-labeled 8 for 1 h in the same growth media followed by washing twice with the same media. Cells were fixed with 10% formaldehyde (Sigma-Aldrich, Saint Louis, MO) and washed three times with PBS. Cells were treated with 20 nM DAPI (4′,6-diamidino-2-phenylindole) in PBS. The chambers were removed and the Vectashield mounting solution (Vector Laboratories, Inc., Burlingame, CA) was added to the sample. Fluorescence microscopic images were taken using the Nikon Eclipse 80i epifluorescence microscope (Nikon Instruments Inc., Melville, NY) and the images were processed by the Element software (Nikon Instruments Inc.).

[4] = target: CAIX; parameters: method as in PMID 25698334; conditions: reported value; cited from earlier work
[5] = target: T1, CAXII (Homo sapiens, UniProt O43570); assay: Fluorescence polarization for affinity comparison (saturation binding); conditions: Fig. 4C
T1 construct: purchased R&D Systems
Experimental: (§2) Figure 4 Compound 8 had higher binding affinity to CAIX compared to CAII and CAXII Saturation binding curves for CAII, CAIX, and CAXII were generated. 5 nM of compound 8 was titrated by increasing concentrations of CAII, CAIX, and CAXII and the resultant fluorescence polarization (mP) was measured, with EC50 values calculated. […] The target in front of each value (CAII, CAIX, CAXII) is taken from the x-axis title of that panel.
(§3) Human recombinant CAII, CAIX, and CAXII were purchased from R&D systems (Minneapolis, MN). 5 nM of FITC-labeled 8 were mixed with serially diluted (from 1 μM to 19 fM) isoforms of the carbonic anhydrases in PBS within 384 well Small Volume™ LoBase Microplates (Greiner Bio-One, Frickenhausen Germany). The mixtures were incubated at room temperature for 1 h. Fluorescence polarization was measured using a Safire2™ plate reader (Tecan, Morrisville, NC), with 475 nm excitation and 530 nm emission wavelengths.

[6] = target: T2, CAII (Homo sapiens, UniProt P00918); assay: as above; conditions: Fig. 4A
T2 construct: purchased R&D Systems
Experimental: as §2, §3

T1 sequence (O43570 25-354): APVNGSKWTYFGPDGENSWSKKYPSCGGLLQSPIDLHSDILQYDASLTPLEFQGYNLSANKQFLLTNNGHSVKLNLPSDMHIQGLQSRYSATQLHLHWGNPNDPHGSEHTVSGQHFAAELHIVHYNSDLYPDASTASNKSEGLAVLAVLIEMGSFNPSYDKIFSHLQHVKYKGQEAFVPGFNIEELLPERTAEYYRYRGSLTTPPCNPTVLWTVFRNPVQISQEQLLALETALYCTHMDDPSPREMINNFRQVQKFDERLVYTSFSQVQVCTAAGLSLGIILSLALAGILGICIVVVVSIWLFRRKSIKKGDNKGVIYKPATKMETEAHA

CC(CCC(=O)N[C@@H](CC(=O)N[C@@H](CC(=O)N[C@@H](CCCCn1cc(CCCC(=O)Nc2nnc(S(N)(=O)=O)s2)nn1)C(=O)NCCOCCOCCNC(=S)Nc1ccc(-c2c3ccc(=O)cc-3oc3cc(O)ccc23)c(C(=O)O)c1)C(=O)O)C(=O)O)(c1ccc(O)cc1)c1ccc(O)cc1 [Compound 8]
binding to cells by FACS (in words) [1]: not to CAIX-negative BxPC3 cells
lowest concentration with significant binding to cells (FACS) [2]: 10 nM
binding to cells by FACS (in words) ([2]; 30 min room temperature): bound specifically
cell surface staining by fluorescence microscopy (in words) [3]: Only SK-RC-52 cells were stained with 8 on the surface of the cells; also recorded: bound to the cell surface of SK-RC-52
Kd [4]: 200 pM
affinity to CAXII relative to CAIX (in words) [5]: about three-fold lower affinity
binding affinity to cytosolic CAII (in words) [6]: poor binding affinity
